Earlier results as cited in patent US20260014184A1, “ADENOSINE DERIVATIVES FOR USE IN THE TREATMENT OF NEURODEGENERATIVE DISORDERS AND CANCER” (UNIVERSITY COLLEGE CARDIFF CONSULTANTS LIMITED, priority 2022, published 2026).

Target: T1, PINK1 (Homo sapiens, UniProt Q9BXM7)
T1 construct: HeLa cells, which express PINK1 endogenously; endogenous in cells; host or cells: HeLa cells transiently transfected with parkin
Settings: evidenced by parkin Ser65 phosphorylation; cited from earlier work

T1 sequence (Q9BXM7 78-581): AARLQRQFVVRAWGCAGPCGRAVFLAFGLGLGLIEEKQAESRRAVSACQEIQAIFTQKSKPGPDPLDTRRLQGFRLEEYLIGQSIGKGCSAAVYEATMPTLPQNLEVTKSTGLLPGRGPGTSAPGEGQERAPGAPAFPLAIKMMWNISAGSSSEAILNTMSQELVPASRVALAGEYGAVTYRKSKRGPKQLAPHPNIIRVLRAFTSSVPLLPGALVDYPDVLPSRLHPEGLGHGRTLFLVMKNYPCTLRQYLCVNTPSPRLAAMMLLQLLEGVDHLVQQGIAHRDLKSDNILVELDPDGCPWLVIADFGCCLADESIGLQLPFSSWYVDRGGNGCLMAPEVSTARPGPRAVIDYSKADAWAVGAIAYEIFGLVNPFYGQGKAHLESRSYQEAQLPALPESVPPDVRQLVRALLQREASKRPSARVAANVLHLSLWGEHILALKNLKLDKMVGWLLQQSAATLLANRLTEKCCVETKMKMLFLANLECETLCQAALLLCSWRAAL

OC[C@H]1O[C@@H](n2cnc3c(NCc4ccco4)ncnc32)[C@H](O)[C@@H]1O [kinetin riboside, N^6-(2-furanylmethyl) adenosine]
CCCP-independent activation of PINK1 in cells, compared to kinetin: more potent CCCP-independent activation of PINK1
